The values that follow come from publication PMC8577775, “Small molecule allosteric inhibitors of RORγt block Th17-dependent inflammation and associated gene expression in vivo” (PLoS ONE, 2021).

Data set [1] relates to KP/C pancreatic tumors in C57Bl/6 mice. The experiment in a line: In vivo tumor growth suppression, KP/C mouse model.
Method: Pancreatic tumor chunks from KP/C mice [20] on C57Bl/6 background were inoculated subcutaneously in the flank of syngeneic mice. […] Tumor volumes and body weight were measured twice each week.
To test whether inhibition of RORγt can lead to tumor growth inhibition we utilized the Kras^G12D/+/Trp53^null/Pdx1-cre (KP/C) mouse model of pancreatic cancer [20]. C57Bl/6 mice were inoculated in the flank with KP/C tumor chunks and enrolled in the study when the average tumor volume reached 200 mm^3. […] To evaluate target engagement, we examined changes in expression of a subset of potential RORγt target genes in tumor samples.
Data set [2] concerns PDAC PDO model T031P. The experiment in a line: In vitro organoid growth assay (CellTiter-Glo 3D), T031P. It is filed as cell-based, human. Conditions: 30 μM, 120 hours of treatment. As to the method: (§1) Patient derived organoids were established as previously described. Briefly, PDX tumor chunks were minced then enzymatically digested into single cells by using a tumor dissociation Kit (Miltenyi, Cat# 130-095-929). Mouse and human cells were separated through magnetic separation, and isolated tumor cells were cultured on Matrigel-coated dishes. […]
(§2) Organoids were isolated and dissociated as described above. Cell numbers were counted by trypan blue exclusion and 5000 cells per well were plated on the Matrigel coated and pre-warmed 96-well plates. […] 100 μl of CellTiter-Glo® 3D reagent (Promega cat# G9682) was added to each well after desired time points and luminescence signal measured after 30 minutes.
(§3) Supplementary file pone.0248034.s010.tif: S6 Fig Schematic of Patient-derived organoids (PDO) growth & formation assays. […] After the indicated treatment schedule organoid growth or formation was assessed by CTG assay. […]
(In ATP-based viability assays light output follows the ATP content of the culture.)

Data set [3] has as its system PDAC PDO model T031P. The experiment in a line: In vitro organoid formation assay (CellTiter-Glo 3D). Format: cell-based. The note with it: Homo sapiens, T031P, treated 24 hr post-plating. As to the method: Patient derived organoids were established as previously described. Briefly, PDX tumor chunks were minced then enzymatically digested into single cells by using a tumor dissociation Kit (Miltenyi, Cat# 130-095-929). Mouse and human cells were separated through magnetic separation, and isolated tumor cells were cultured on Matrigel-coated dishes. Organoid cultures were maintained by growing on Matrigel in human complete maintenance media: Advanced DMEM/F12 media (Life Technology, Cat# 12634028), 10 mM HEPES (Life Technology, Cat# 15630–080), 1X Glutamax (Life Technology, Cat# 35050–061), 1X Antibiotic-Antimycotic (Life Technology, Cat# 15240–062), 10 mM Nicotinamide (Sigma-Aldrich, Cat# N0636-500G), 250 ng/mL R-Spondin-1 (Peprotech, Cat# 120–38), 100 ng/mL Noggin (Peprotech, Cat# 120-10C), 50 ng/mL EGF (Peprotech, Cat# AF-100-15), 100 ng/mL FGF10 (Peprotech, Cat# 100–26), […] (Sigma-Aldrich, Cat# G9020), 500 nM A83-01 (Sigma, Cat# SML0788), 20 μM Y-27632 (LC Laboratories, Cat# Y-5301), 1X B27 (Life Technology, Cat# 12587010), 10 ng/mL Wnt3a (R&D Systems, Cat# 5036-WN-010), 0.1% Methylcelluose (R&D Systems, Cat# HSC001) and Plasmocin (Invivogen, Cat# Ant-mpp) and were passaged every 10–14 days. Organoids were isolated from Matrigel (Corning, Cat# 08-774-406) in a cell recovery solution (Corning, Cat# CB-40253). Spheroid clusters were then dissociated into a single cell suspension with TrypLE (Gibco, Cat# 12605). […]
as §2, §3

The test system of the next data set is PDAC PDO model T020P. The experiment in a line: In vitro organoid growth assay (CellTiter-Glo 3D), T020P. Format: cell-based, human. Conditions: organoid growth assay, up to 30 μM. As to the method: as §1, §2, §3
Data set [4] can be described thus: Intra-tumoral compound concentration, KP/C mouse model. It is filed as in vivo. The note with it: 16 hours post dosing, mean ± SD. As to the method: In the IMQ-induced inflammation model, whole blood (300–500 μL) was collected and centrifuged (1000 g x 10 min) at 20° C to obtain plasma samples. […] Plasma standard curves were prepared by adding each test compound in to mouse plasma and serial diluting to desired concentration. Blank tumor homogenate and blank plasma was add to plasma standards and tumor homogenate samples, respectively, at 1:1 (v:v) ratio for matrix match of tumor sample analysis. An aliquot of 50 μL of each plasma sample, each tumor sample and each corresponding standards was added to 200 μL of acetonitrile with 100 ng/mL of carbutamide (Sigma Aldrich, St. Louis, MO), internal standard (IS), for protein precipitation, then filtered through a 96-well Orochem filtration plate (Orochem Technologies Inc., Naperville IL). Each extracted test compound in resultant supernatant was analyzed with appropriate liquid chromatography column eluting to a Sciex QTRAP 6500+ LC/MS/MS system (Applied Biosystems, Foster City, CA). Each analyte was characterized by Turbo IonSpray ionization multiple reaction monitoring (MRM). Quantitative drug concentrations were determined by standard calibration curve analysis, using linear fitting with 1/x^2 weighted plot of the analyte/IS peak area ratio vs analyte concentration. […]

Molecules are shown by their SMILES.

One may read the IC50 as the point on the concentration scale where inhibition reaches its midpoint. A high value points to weaker potency.

Take `O=C(O)[C@@H]1CCC(c2nn(C(=O)c3c(Cl)cccc3C(F)(F)F)c3cccc(F)c23)=C[C@H]1O` [Compound 3]: the “tumor volume, combination with gemcitabine” value in data set [1] (Compound 3 30mg/kg BID plus gemcitabine vs gemcitabine) is “no additional benefit”. In data set [1] (single agent vs vehicle, 28 days of dosing), the tumor volume entry is given as “not statistically significant”. In addition, in the data set on PDAC PDO model T031P [2], the “decrease of organoid growth” value is listed as ~ 30%. Moreover, the IC50 in the data set with PDAC PDO model T031P [3] (120 hours) was 30 µM; in the data set with PDAC PDO model T031P [3] (168 hours) it was 10 µM. Besides, the “viability of T020P PDOs” value with PDAC PDO model T020P is “did not decrease viability”. Moreover, the figures for the tumor concentration in data set [4] (in combination with gemcitabine) and in data set [4] (single agent) were 222 pmol/g and 47 pmol/g, respectively.
